From patent US20110136776A1, “Copper(1)Chloride Complex of Nicotinic Acid and Pharmaceutical Compositions Containing the Same” (priority 2008, published 2011)

Tested on: fatigue
Conditions: all types of fatigue: unexplained fatigue, chronic fatigue syndrome, fibromyalgia

“[CuCl (Nicotinic acid)2 H20]complex [The complex]” was tested, and the “Effect in chronic fatigue (muscle pain, physical activity, productivity, depression)” value was “relieved the muscle pain, increased the physical activity and productivity”.
